# Measurements published in patent US11730712B2, “Functionalized long-chain hydrocarbon mono- and di-carboxylic acids and derivatives thereof, and their use for the prevention or treatment of disease” (ESPERVITA THERAPEUTICS, INC., priority 2021, dated 2023).
# System: Acyl-CoA synthetase activity in rat liver microsomes
# Experiment: Synthesis of CoA derivatives in rat liver microsomes (LCMS)
# Settings: 1 mM substrate, 30 min sample vs 0 min
# Procedure: Prior to the experiment a 1 mM working stock was created in primary hepatocyte media which was used to create the final dilution series of 0 (vehicle), 0.3, 1, 3, 10, and 30 μM. The final concentration of DMSO in all samples was <1%.
# For initial validation of ACS activity using palmitate, 14C-palmitate was added (0.5 μCi/ml). Each sample was equilibrated at 37° C. while shaking for 10 min before the reaction was initiated by the addition of 0.04 mg of rat microsomal preparation (ThermoFisher Scientific. Cat #RTM-CPL, Lot #RT060-A) followed by incubation for 1, 3, 10, or 30 mins. Time 0 sample with no added microsomes was used as a control. The reaction was stopped by immediately placing the reaction tube on ice followed by the rapid addition of the reaction mixture to 2.25 ml ice-cold isopropanol/heptane/2M-sulfuric acid (40:10:1, vol/vol) in a 5 ml glass vial. […] For studies that involved measurement of 14C Palmitoyl-CoA formation, 200 μl of the lower aqueous phase was added to the 5 ml of scintillation fluid and the number of DPMs were determined by liquid scintillation counting for 5 minutes using a LS6500 Liquid Scintillation Counter (Beckman Coulter). […]
# The reaction products were ionized by electrospray ion source (ESI) in positive mode. […] The resulting mass spectra were analyzed using the Xcalibur 2.1 Qualitative software package. […]
smiles,measurement,value
"CC(C)(CCCc1ccccc1CCCC(C)(C)C(=O)SCCNC(=O)CCNC(=O)[C@H](O)C(C)(C)COP(=O)(O)OP(=O)(O)OC[C@H]1O[C@@H](n2cnc3c(N)ncnc32)[C@H](O)[C@@H]1OP(=O)(O)O)C(=O)O [Compound I-61-CoA, 5-[2-(4-Carboxy-4-methylpentyl)-phenyl]-2,2-dimethylpentanoic acid Coenzyme A ester]","formation of the CoA derivative, detection by LCMS",could not be confirmed using fragmentation analysis
